Where two headings read alike, the source gives them in different places.
Target: T1, NR2B subunit of NMDA receptor (Rattus norvegicus, UniProt Q00960)
T1 construct: gene Grin2b; native NMDA receptor in rat cerebral cortex membranes; with NR1
Assay type: binding

T1 sequence (Q00960 27-1482, other chains not shown): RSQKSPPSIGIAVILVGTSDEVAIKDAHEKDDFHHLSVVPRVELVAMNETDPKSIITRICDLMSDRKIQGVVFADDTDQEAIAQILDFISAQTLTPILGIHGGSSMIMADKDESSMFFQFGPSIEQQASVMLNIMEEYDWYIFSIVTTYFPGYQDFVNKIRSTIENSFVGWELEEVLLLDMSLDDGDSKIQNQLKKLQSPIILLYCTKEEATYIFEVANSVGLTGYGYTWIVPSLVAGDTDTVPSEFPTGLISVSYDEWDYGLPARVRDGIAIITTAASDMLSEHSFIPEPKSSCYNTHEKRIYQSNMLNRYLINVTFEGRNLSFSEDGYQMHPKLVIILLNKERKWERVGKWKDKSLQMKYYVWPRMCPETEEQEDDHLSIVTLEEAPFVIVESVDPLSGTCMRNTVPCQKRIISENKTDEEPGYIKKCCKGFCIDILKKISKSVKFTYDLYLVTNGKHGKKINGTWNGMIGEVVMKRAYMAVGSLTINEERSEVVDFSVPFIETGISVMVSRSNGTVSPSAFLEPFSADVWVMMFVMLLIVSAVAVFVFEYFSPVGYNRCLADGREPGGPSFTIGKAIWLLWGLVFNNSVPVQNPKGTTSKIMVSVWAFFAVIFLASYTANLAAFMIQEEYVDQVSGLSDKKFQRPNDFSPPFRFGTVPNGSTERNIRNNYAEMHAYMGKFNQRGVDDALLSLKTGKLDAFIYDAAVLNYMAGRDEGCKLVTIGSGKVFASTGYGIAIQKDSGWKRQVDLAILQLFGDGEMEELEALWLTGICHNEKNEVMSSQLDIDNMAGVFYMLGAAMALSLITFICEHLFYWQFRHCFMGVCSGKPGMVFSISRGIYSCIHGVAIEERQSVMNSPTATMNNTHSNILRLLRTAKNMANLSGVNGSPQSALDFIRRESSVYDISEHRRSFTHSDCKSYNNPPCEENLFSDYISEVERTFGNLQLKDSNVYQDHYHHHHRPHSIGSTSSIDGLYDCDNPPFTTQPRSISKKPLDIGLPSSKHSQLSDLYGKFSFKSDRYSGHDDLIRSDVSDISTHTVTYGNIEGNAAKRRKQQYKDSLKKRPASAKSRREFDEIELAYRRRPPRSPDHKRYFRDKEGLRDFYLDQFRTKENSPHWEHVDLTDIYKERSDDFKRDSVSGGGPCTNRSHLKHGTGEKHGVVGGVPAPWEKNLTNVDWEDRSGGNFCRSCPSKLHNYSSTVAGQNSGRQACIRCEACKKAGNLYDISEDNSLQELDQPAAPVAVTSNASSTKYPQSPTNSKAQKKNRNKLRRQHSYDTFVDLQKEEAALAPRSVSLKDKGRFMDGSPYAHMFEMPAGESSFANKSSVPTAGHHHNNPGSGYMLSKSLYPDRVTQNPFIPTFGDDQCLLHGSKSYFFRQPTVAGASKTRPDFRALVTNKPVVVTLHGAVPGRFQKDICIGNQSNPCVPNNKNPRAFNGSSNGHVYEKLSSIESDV

| Ki (read-out: Ki) [µM] | Compound | Ki [µM] |
| --- | --- | --- |
| 27.7 | N=C(N)c1ccc2cc(OC(=O)c3ccc(NC4=NCCN4)cc3)ccc2c1 [sepimostat, 6-amidino-2-naphthyl[4-(4,5-dihydro-1H-imidazol-2-yl)amino] benzoate dimethane sulfonate] | – |
| – | N=C(N)c1ccc2cc(OC(=O)c3ccc(N=C(N)N)cc3)ccc2c1 [nafamostat] | 4.2 |

From PMC6938488, “Nafamostat and sepimostat identified as novel neuroprotective agents via NR2B N-methyl-D-aspartate receptor antagonism using a rat retinal excitotoxicity model” (Scientific Reports, 2019)
